Laboratory results from the supplement of paper PMC10307832.

Experiments:
Assay in all cases: relative viability (nuclei count vs DMSO), 5 days (fraction); higher = more cells survive
Vandetanib + AZD7762 = compound: COc1cc2/c(=N/c3ccc(Br)cc3F)nc[nH]c2cc1OCC1CCN(C)CC1 [Vandetanib] + NC(=O)Nc1cc(-c2cccc(F)c2)sc1C(=O)N[C@H]1CCCNC1 [AZD7762] (partner 0.2 µM)
Outline: (§1)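 Lung cancer cell lines were seeded in 1536-well plates and dosed by pin tool the next day, with either a single drug or a fixed anchor-drug dose combined with five library-drug doses (not always all listed) spaced in √10 steps. Five days later, one step fixed the cells and stained their nuclei (final 0.05% Triton X-100, 1% formaldehyde, 1 ug/ml Hoechst), and nuclei were counted on 4× images. Relative viability is the nuclei count in treated wells divided by the count in vehicle wells, and each value is the median of duplicate plates.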

Vandetanib + Decitabine = compound: COc1cc2/c(=N/c3ccc(Br)cc3F)nc[nH]c2cc1OCC1CCN(C)CC1 [Vandetanib] + Nc1ncn([C@H]2C[C@H](O)[C@@H](CO)O2)c(=O)n1 [Decitabine] (partner 2 µM)
Outline: as §1

Vandetanib + Pictilisib = compound: COc1cc2/c(=N/c3ccc(Br)cc3F)nc[nH]c2cc1OCC1CCN(C)CC1 [Vandetanib] + CS(=O)(=O)N1CCN(Cc2cc3nc(-c4cccc5[nH]ncc45)nc(N4CCOCC4)c3s2)CC1 [Pictilisib] (partner 1 µM)
Outline: as §1

CUDC-101 + Decitabine = compound: C#Cc1cccc(Nc2ncnc3cc(OC)c(OCCCCCCC(=O)NO)cc23)c1 [CUDC-101] + Nc1ncn([C@H]2C[C@H](O)[C@@H](CO)O2)c(=O)n1 [Decitabine] (partner 2 µM)
Outline: as §1

Row | Cell Line | relative viability (Vandetanib + AZD7762; first compound 0.02 µM) | relative viability (Vandetanib + AZD7762; first compound 0.06325 µM) | relative viability (Vandetanib + AZD7762; first compound 0.2 µM) | relative viability (Vandetanib + AZD7762; first compound 0.6325 µM) | relative viability (Vandetanib + AZD7762; first compound 2 µM) | relative viability (Vandetanib + Decitabine; first compound 0.02 µM) | relative viability (Vandetanib + Decitabine; first compound 0.06325 µM) | relative viability (Vandetanib + Decitabine; first compound 0.2 µM) | relative viability (Vandetanib + Decitabine; first compound 0.6325 µM) | relative viability (Vandetanib + Decitabine; first compound 2 µM) | relative viability (Vandetanib + Pictilisib; first compound 0.02 µM) | relative viability (Vandetanib + Pictilisib; first compound 0.06325 µM) | relative viability (Vandetanib + Pictilisib; first compound 0.2 µM) | relative viability (Vandetanib + Pictilisib; first compound 0.6325 µM) | relative viability (Vandetanib + Pictilisib; first compound 2 µM) | relative viability (CUDC-101 + Decitabine; first compound 0.01 µM) | relative viability (CUDC-101 + Decitabine; first compound 0.03162 µM) | relative viability (CUDC-101 + Decitabine; first compound 0.1 µM) | relative viability (CUDC-101 + Decitabine; first compound 0.3162 µM) | relative viability (CUDC-101 + Decitabine; first compound 1 µM)
1 | NCI-H1734 | 0.554 | 0.511 | 0.557 | 0.517 | 0.545 | 0.495 | 0.494 | 0.537 | 0.526 | 0.513 | 0.43 | 0.435 | 0.479 | 0.449 | 0.43 | 0.514 | 0.487 | 0.497 | 0.471 | 0.389
2 | EMC-BAC-2 | 1.08 | 1.08 | 1.12 | 1.11 | 0.973 | 1.03 | 0.938 | 0.902 | 0.966 | 0.905 | 0.556 | 0.51 | 0.358 | 0.484 | 0.538 | 1.09 | 0.925 | 0.948 | 0.952 | 0.654
3 | NCI-H1915 | 0.696 | 0.664 | 0.693 | 0.612 | 0.719 | 0.245 | 0.255 | 0.274 | 0.263 | 0.248 | 0.858 | 0.901 | 0.946 | 0.944 | 0.888 | 0.262 | 0.267 | 0.28 | 0.248 | 0.23
4 | NCI-H358 | 0.545 | 0.465 | 0.476 | 0.431 | 0.358 | 0.181 | 0.203 | 0.208 | 0.232 | 0.19 | 0.285 | 0.328 | 0.331 | 0.316 | 0.241 | 0.209 | 0.204 | 0.174 | 0.206 | 0.112
5 | NCI-H2085 | 0.941 | 0.944 | 0.951 | 0.857 | 0.946 | 0.536 | 0.522 | 0.525 | 0.471 | 0.574 | 0.428 | 0.421 | 0.398 | 0.363 | 0.513 | 0.642 | 0.552 | 0.634 | 0.568 | 0.551
6 | LCLC-97TM1 | 0.185 | 0.306 | 0.299 | 0.261 | 0.139 | 0.223 | 0.22 | 0.209 | 0.264 | 0.234 | 0.282 | 0.2 | 0.206 | 0.171 | 0.188 | 0.286 | 0.24 | 0.227 | 0.228 | 0.191
7 | ABC-1 | 0.871 | 0.901 | – | 0.726 | 0.773 | 1.14 | 1.04 | 1.13 | 1.4 | 0.833 | 0.794 | 0.673 | 0.866 | 0.664 | 0.765 | 0.989 | 0.92 | 0.992 | 0.985 | 1.03
8 | NCI-H596 | 1.15 | 1.05 | 1.12 | 1.02 | 1.17 | 0.986 | 0.98 | 0.983 | 0.979 | 0.978 | 0.395 | 0.35 | 0.323 | 0.398 | 0.352 | 0.902 | 1.03 | 0.988 | 1.18 | 1.02
9 | PC-14 | 0.361 | 0.282 | 0.25 | 0.164 | 0.13 | 0.246 | 0.197 | 0.175 | 0.171 | 0.159 | 0.676 | 0.594 | 0.35 | 0.0812 | 0.0658 | 0.253 | 0.249 | 0.158 | 0.179 | 0.0808
10 | H3255 | 0.898 | 0.812 | 0.824 | 0.636 | 0.377 | 0.766 | 0.559 | 0.565 | 0.387 | 0.207 | 0.469 | 0.392 | 0.386 | 0.263 | 0.126 | 0.643 | 0.549 | – | 0.227 | 0.15
11 | NCI-H441 | 1.12 | 0.945 | 1.02 | 1.31 | 1.34 | 0.243 | 0.22 | 0.222 | 0.277 | 0.217 | 0.333 | 0.49 | 0.425 | 0.527 | 0.452 | 0.303 | 0.305 | 0.262 | 0.242 | 0.236
12 | LK-2 | 0.36 | 0.345 | 0.309 | 0.369 | 0.515 | 0.307 | 0.293 | 0.317 | 0.315 | 0.271 | 0.585 | 0.652 | 0.531 | 0.559 | 0.478 | 0.262 | 0.329 | 0.384 | 0.2 | 0.125
13 | LU99A | 0.303 | 0.516 | 0.344 | 0.238 | 0.334 | 0.804 | 0.828 | 0.676 | 0.834 | 0.771 | 0.304 | 0.327 | 0.336 | 0.29 | 0.306 | 0.824 | 0.823 | 0.9 | 0.831 | 0.657
14 | NCI-H322M | 0.518 | 0.567 | 0.605 | 0.496 | 0.374 | 0.688 | 0.658 | 0.763 | 0.718 | 0.577 | 0.397 | 0.517 | 0.498 | 0.459 | 0.351 | 0.65 | 0.686 | 0.625 | 0.651 | 0.517
15 | NCI-H1793 | 0.514 | 0.409 | 0.331 | 0.286 | 0.397 | 0.424 | 0.407 | 0.517 | 0.401 | 0.439 | 0.338 | 0.309 | 0.27 | 0.341 | 0.379 | 0.388 | 0.493 | 0.467 | 0.431 | 0.435
16 | HARA | 0.262 | 0.448 | 0.396 | 0.18 | 0.312 | 0.466 | 0.653 | 0.515 | 0.559 | 0.578 | 0.385 | 0.248 | 0.337 | 0.369 | 0.392 | 0.446 | 0.515 | – | 0.464 | 0.254
17 | LXF-289 | 1.07 | 1.08 | 1.04 | 1.1 | 1.01 | 0.376 | 0.382 | 0.362 | 0.348 | 0.393 | 0.828 | 0.771 | 0.773 | 0.792 | 0.798 | 0.396 | 0.418 | 0.358 | 0.367 | 0.301
18 | 201T | 0.675 | 0.62 | 0.626 | 0.588 | 0.614 | 0.831 | 0.828 | 0.859 | 0.85 | 0.797 | 0.663 | 0.648 | 0.652 | 0.706 | 0.692 | 0.835 | 0.863 | 0.844 | 0.842 | 0.828
19 | LCLC-103H | 0.755 | 0.783 | 0.758 | 0.772 | 0.82 | 0.733 | 0.729 | 0.659 | 0.75 | 0.762 | 0.565 | 0.518 | 0.563 | 0.528 | 0.472 | 0.692 | 0.695 | 0.722 | 0.657 | 0.633
20 | RERF-LC-KJ | – | 0.985 | 1.06 | 1.04 | 0.766 | 0.711 | 0.74 | 0.737 | 0.665 | 0.555 | 0.583 | 0.543 | 0.577 | 0.448 | 0.394 | 0.648 | 0.724 | 0.711 | 0.588 | 0.469
21 | NCI-H1975 | 0.701 | 0.663 | 0.645 | 0.687 | 0.617 | 0.399 | 0.401 | 0.422 | 0.419 | 0.387 | 0.285 | 0.26 | 0.296 | 0.27 | 0.301 | 0.398 | 0.451 | 0.389 | 0.391 | 0.374
22 | PC-3 [JPC-3] | 0.766 | 0.729 | 0.591 | 0.512 | 0.419 | 0.876 | 0.847 | 0.72 | 0.661 | 0.488 | 0.725 | 0.709 | 0.622 | 0.423 | 0.359 | 0.773 | 0.717 | 0.54 | 0.723 | 0.476
23 | EPLC-272H | 0.23 | 0.428 | 0.244 | 0.201 | 0.189 | 0.381 | 0.35 | 0.343 | 0.364 | 0.314 | 0.363 | 0.311 | 0.121 | 0.355 | 0.166 | 0.327 | 0.363 | 0.341 | 0.301 | 0.309
